# Assay results as given in US20230372293A1, “SIRT1 INHIBITOR OR ANTAGONIST FOR USE IN PREVENTING AND/OR TREATING AN HPV INDUCED TUMOUR” (UNIVERSITA' DEGLI STUDI DEL PIEMONTE ORIENTALE "A. AVOGADRO", priority 2020, published 2023).
# Where a SMILES comes first, the peptide text is derived from it. The star is where a group is joined. Cbz = O=C(OCc1ccccc1)*
# What was measured:
# HeLa cells [1] = experiment: Cell cycle analysis by propidium iodide flow cytometry, EX527 and doxorubicin; type: cell-based; settings: DX 1.5 μM 16 h
# Protocol: (§1) For this purpose, HeLa and CaSki cells were treated with EX527 (80 μM) for 24 h, or with an equal volume of DMSO solvent and after this period elapsed, they were treated with DX (1.5 μM for HeLa, 0.5 μM for CaSki) for a further 16 h. After this incubation period at 37° C., the cells were labelled with propidium iodide (IP). Propidium iodide (3,8-diamino-5-diethylmethyl aminopropyl-6-phenylphenanthridine diiodide) (IP) is a synthetic dye characterised by low fluorescence (red-orange), capable of selectively binding to nucleic acids. It is known that the DNA content varies according to the phase of the cycle in which a cell is found. In particular, the G2 phase and mitosis (M) have twice as much DNA as the G1 phase, while during the DNA synthesis phase (S phase), the cell has an intermediate amount of DNA between the content in G1 and G2. Since the apoptotic cells, once resuspended in an appropriate buffer, release small DNA fragments, a reduction in IP fluorescence (related to the decrease in DNA content) can be observed in them. […] The cytofluorimetric analysis was performed on the FACSCalibur flow cytometer instrument (BD Biosciences) (excitation at 488 nm and emission 400 nm) and the results were analysed with the FlowJo programme.
# CaSki cells [2] = experiment: as above; type: cell-based; settings: DX 0.5 μM 16 h
# Protocol: as §1
# NOKE6E7 cells = experiment: Annexin V-FITC/IP apoptosis assay, EX527 and doxorubicin; type: cell-based, human; settings: DX 1.5 μM 24 h, FIG. 6
# Protocol: (§2) For this purpose, HeLa, CaSki, and NOKE6E7 cells were treated with EX527 (80 μM) for 24 h, or with an equal volume of DMSO solvent and after this period elapsed, they were treated with DX (1.5 μM for HeLa and NOKE6E7, 0.5 μM for CaSki) for a further 24 h. After this incubation period at 37° C., the cells were processed using the “Annexin V-FITC Apoptosis Detection Kit” (BioLegend), a technique that allows the presence of apoptotic and necrotic cells to be detected by cytofluorimetric analysis. This assay exploits the ability of the annexin protein to bind to phosphatidylserine (PS) and thus give fluorescence in green thanks to the conjugated fluorophore (FITC, fluorescein isothiocyanate). PS is a phospholipid normally found on the inner side of the cell membrane. During apoptosis processes, on the other hand, PS is exposed to the outside and allows annexin V to bind to it. […] Subsequently, 400 μl of Annexin V Binding Buffer were added to each tube and the cells were analysed on the FACSCalibur flow cytometer instrument (BD Biosciences) (excitation at 488 nm, emission 518 nm and 400 nm for FITC and IP respectively). The results were then analysed with the FlowJo programme.
# HeLa cells [3] = experiment: as above; type: cell-based; settings: DX 1.5 μM 24 h, FIG. 6
# Protocol: as §2
# CaSki cells [4] = experiment: as above; type: cell-based; settings: DX 0.5 μM 24 h, FIG. 6
# Protocol: as §2
# HeLa cells [5] = experiment: MTT cell viability, EX527 and doxorubicin; type: cell-based; settings: DX 1.5 μM for 16, 40, 64 h
# Protocol: (§3) The observations described above prompted an analysis of whether HPV-positive cells in which SIRT1 is inhibited with consequent reduced expression of E6 and E7 and restoration of p53, could be more sensitive to the treatment with genotoxic drugs, such as doxorubicin (DX, SIGMA ALDRICH). Firstly, cell viability was determined following treatment with EX527 in combination with doxorubicin against HeLa and CaSki cells, using the MTT (3-(4,5-dimethylthiazol-2-yl)-2,5-diphenyltetrazolium bromide; SIGMA-ALDRICH) colorimetric assay. To this purpose, the cells were exposed to a concentration of EX527 of 80 μM or equal volume of solvent, dimethyl sulfoxide (DMSO, SIGMA ALDRICH) for 24 h, after this period elapsed the cells were treated with DX (1.5 μM for HeLa, 0.5 μM for CaSki) for a further 16, 40, 64 h. Subsequently, the supernatant was removed, the well was washed with PBS1× (SIGMA-ALDRICH) and incubated for 2 hours at 37° C. and 5% of CO2 with DMEM medium supplemented with 500 μg/mL MTT solution. […] On these solubilised cells, absorbance was measured at a wavelength of 570 nm, using the Victor3 multiplate reader spectrophotometer (Perkin Elmer). The absorbance value obtained from the sample treated with the carrier alone at the maximum dose was considered equal to 100% viability and the other values were related thereto.
# CaSki cells [6] = experiment: MTT cell viability, EX527 and doxorubicin; type: cell-based; settings: DX 0.5 μM for 16, 40, 64 h
# Protocol: as §3
# HeLa cells [7] = experiment: Western blot of E6 and E7 with proteosome inhibitor MG132; type: cell-based; settings: DMSO then MG132 30 μM 8 h, vs DMSO control
# Protocol: (§4) In order to determine whether the inhibition of E6 or E7 proteins was due to a transcriptional or post-translational modification, HeLa or CaSki cells, pre-treated for 48 h with EX527 at a concentration of 80 μM or equal volume of solvent, dimethyl sulfoxide (DMSO, SIGMA ALDRICH), were incubated with a proteosome inhibitor, MG132 (SIGMA ALDRICH) for 8 h at a concentration of 30 μM. After this incubation period at 37° C., the expression levels of viral E6 and E7 proteins were tested. The α-tubulin protein was included as an internal loading control. The cells were lysed with RIPA buffer (50 mM Tris-HCl pH 7.4; 150 mM NaCl; 1 mM EDTA; 1% Nonidet P-40; 0.1% SDS; 0.5% deoxycholate; protease inhibitors) for 30 min on ice. The samples were subsequently centrifuged for 10 minutes at 13000 rpm at 4° C. to remove cellular debris and then the proteins were quantified using the Bradford method (BIO-RAD). 30 μg of protein extract were taken, to which the appropriate amount of Laemmli sample buffer (50 mM Tris-HCl pH 6.8, 2% SDS, 10% glycerol, 2% β-mercaptoethanol) was added. The thus obtained solution was heated to 95° C. for 5 minutes and separated by polyacrylamide (12%)-SDS page gel electrophoresis. […]
# CaSki cells [8] = experiment: as above; type: cell-based; settings: DMSO then MG132 30 μM 8 h, vs DMSO control
# Protocol: as §4
smiles,measurement,setting,value
"COc1cccc2c1C(=O)c1c(O)c3c(c(O)c1C2=O)C[C@@](O)(C(=O)CO)C[C@@H]3O[C@H]1C[C@H](N)[C@H](O)[C@H](C)O1 [DX, doxorubicin]","cell death (sub-G0/G1 phase), DX",HeLa cells [1],increase in cell death (sub-G0/G1 phase)
same,"cell death (sub-G0/G1 phase), DX",CaSki cells [2],increase in cell death (sub-G0/G1 phase)
same,"percentage of apoptotic cells, DX",NOKE6E7 cells,increase in the percentage of apoptotic cells
same,"percentage of apoptotic cells, DX",HeLa cells [3],increase in the percentage of apoptotic cells
same,"percentage of apoptotic cells, DX",CaSki cells [4],increase in the percentage of apoptotic cells
same,"mortality rate (MTT), DX alone",HeLa cells [5],mortality rate increases more
same,"mortality rate (MTT), DX alone",CaSki cells [6],mortality rate increases more
CC(C)C[C@@H](C=O)NC(=O)[C@H](CC(C)C)NC(=O)[C@H](CC(C)C)NC(=O)OCc1ccccc1 [MG132] (Cbz-Leu-Leu-Leu-aldehyde),expression of E6 and E7 after DMSO plus MG132,HeLa cells [7],recovery in the expression of the tested proteins
same,expression of E6 and E7 after DMSO plus MG132,CaSki cells [8],recovery in the expression of the tested proteins
